Measurements from patent US20090123389A1, “Methods for modulating Th17 cell development in the treatment and prevention of cellulite” (priority 2007, published 2009).

Columns and labels:
[1] = system: CD4+ CD25− T cells; assay: DNA microarray transcriptional profile of T cells activated in Th17-priming conditions; assay type: cell-based, mouse; settings: 6 hr; 10 nM; Th17-priming conditions
[2] = system: amino acid response (AAR) pathway; assay: eIF2α phosphorylation and ATF4 protein in T cells (immunoblot); assay type: cell-based, mouse
Description: Whole cell lysates were prepared 4 hours-post TCR activation and immunoblotting was performed with the indicated antibodies. ATF4 protein is indicated by arrowhead. NS—non-specific band.
FIG. 12E is an illustration depicting immunoblot analysis of purified CD4^+ CD25^− T cells activated through the TCR for the indicated times without exogenous cytokines in the presence of either 10 nM MAZ1310 or 10 nM HF as indicated. Whole cells lysates were prepared during the timecourse and immunoblotting was performed.
Cultures were further supplemented with either 10 nM MAZ1310 or 10 nM HF as indicated. Whole cell lysates were generated 4 hours after activation and immunoblotting was performed. Microarray data were generated from triplicate samples and all other data are representative of at least 2 similar experiments.
Western blotting: Whole cell lysates were generated from T cells activated for the indicated times. For STAT3 and Smad2/3 western blots cells were harvested, washed in PBS and lysed in 50 mM Tris, pH 7.4, 0.1% SDS, 1% Triton-×100, 140 mM NaCl, 1 mM EDTA, 1 mM EGTA supplemented with protease inhibitors tablets (Roche—Germany), 1 mM NaF and 1 mM Na3VO4. For eIF2α and ATF4 western blots, cells were harvested as above and lysed in 50 mM Tris, pH 7.4, 2% SDS, 20% glycerol and 2 mM EDTA supplemented with protease and phosphatase inhibitors as above. All lysates were cleared via centrifugation and 15-30 μg of protein was resolved by SDS-PAGE. Protein was transferred to nitrocellulose membranes, blocked and blotted using specific antibodies. Antibodies used for western blot analysis were anti-phospho-Smad2, anti-STAT3 (pY705), anti-STAT3, anti-eIF2α^pS51, anti-eIF2α, anti-GCN2^pT898, anti-GCN2 (all from cell signaling technology, Danvers, Mass.). Anti-ATF4/CREB2 and anti-β-actin were purchased from Santa Cruz biotechnology (Santa Cruz, Calif.). HRP-conjugated secondary antibodies were all purchased from Sigma, with the exception of HRP-conjugated anti-armenian hamster antibody (Jackson Immunoresearch—West Grove, Pa.).

[3] = system: T-cells and fibroblasts; assay: Non-specific effects at high concentrations in vitro; assay type: cell-based; settings: about 80 nM HF, primary T-cells

O=C(CC1NCCCC1O)Cn1cnc2cc(Br)c(Cl)cc2c1=O (racemic) [HF, 7-bromo-6-chloro-3-[3-(3-hydroxy-2-piperidinyl)-2-oxopropyl]-4(3H)-quinazolinone]
Aldh18a1 transcript fold increase, HF vs. MAZ1310 [1]: 2.7 ± 0.2 fold | Asns transcript fold increase, HF vs. MAZ1310 [1]: 7.1 ± 0.5 fold | Atf3 transcript fold increase, HF vs. MAZ1310 [1]: 3.2 ± 0.5 fold | Atf5 transcript fold increase, HF vs. MAZ1310 [1]: 8.9 ± 1.0 fold | Cars transcript fold increase, HF vs. MAZ1310 [1]: 2.2 ± 0.3 fold | Cd274 transcript fold increase, HF vs. MAZ1310 [1]: 2.0 ± 0.1 fold | Cebpb transcript fold increase, HF vs. MAZ1310 [1]: 8.0 ± 0.2 fold | Cebpg transcript fold increase, HF vs. MAZ1310 [1]: 3.1 ± 0.5 fold | Chd2 transcript fold increase, HF vs. MAZ1310 [1]: 2.5 ± 0.5 fold | Cldn12 transcript fold increase, HF vs. MAZ1310 [1]: 4.6 ± 0.5 fold | Clic4 transcript fold increase, HF vs. MAZ1310 [1]: 2.8 ± 0.2 fold | Cth transcript fold increase, HF vs. MAZ1310 [1]: 16.0 ± 1.6 fold | Cxcl10 transcript fold increase, HF vs. MAZ1310 [1]: 2.1 ± 0.1 fold | Ddit3 transcript fold increase, HF vs. MAZ1310 [1]: 5.0 ± 0.7 fold | Eif4Ebp1 transcript fold increase, HF vs. MAZ1310 [1]: 5.3 ± 0.3 fold | Gpt2 transcript fold increase, HF vs. MAZ1310 [1]: 16.7 ± 2.2 fold | Herpud1 transcript fold increase, HF vs. MAZ1310 [1]: 2.7 ± 0.1 fold | Icam1 transcript fold increase, HF vs. MAZ1310 [1]: 2.8 ± 0.3 fold | Irf1 transcript fold increase, HF vs. MAZ1310 [1]: 2.6 ± 0.2 fold | Lars transcript fold increase, HF vs. MAZ1310 [1]: 2.1 ± 0.0 fold | Mpa2l transcript fold increase, HF vs. MAZ1310 [1]: 7.3 ± 1.7 fold | Ncoa7 transcript fold increase, HF vs. MAZ1310 [1]: 3.2 ± 0.5 fold | Nfkbiz transcript fold increase, HF vs. MAZ1310 [1]: 1.9 ± 0.3 fold | Pck2 transcript fold increase, HF vs. MAZ1310 [1]: 7.4 ± 0.9 fold | Pdcd1lg2 transcript fold increase, HF vs. MAZ1310 [1]: 2.5 ± 0.3 fold | Phgdh transcript fold increase, HF vs. MAZ1310 [1]: 4.2 ± 0.3 fold | Psat1 transcript fold increase, HF vs. MAZ1310 [1]: 2.6 ± 0.0 fold | Psph transcript fold increase, HF vs. MAZ1310 [1]: 3.4 ± 0.3 fold | Pvr transcript fold increase, HF vs. MAZ1310 [1]: 2.0 ± 0.1 fold | Pycr1 transcript fold increase, HF vs. MAZ1310 [1]: 6.6 ± 0.4 fold | Pycs transcript fold increase, HF vs. MAZ1310 [1]: 2.3 ± 0.1 fold | Sars1 transcript fold increase, HF vs. MAZ1310 [1]: 2.3 ± 0.1 fold | Sesn2 transcript fold increase, HF vs. MAZ1310 [1]: 2.3 ± 0.2 fold | Slamf7 transcript fold increase, HF vs. MAZ1310 [1]: 2.1 ± 0.2 fold | Slc1a4 transcript fold increase, HF vs. MAZ1310 [1]: 4.6 ± 0.4 fold | Slc5a9 transcript fold increase, HF vs. MAZ1310 [1]: 5.7 ± 0.6 fold | Slc7a3 transcript fold increase, HF vs. MAZ1310 [1]: 6.5 ± 0.9 fold | Slc14a1 transcript fold increase, HF vs. MAZ1310 [1]: 6.6 ± 0.4 fold | Trib3 transcript fold increase, HF vs. MAZ1310 [1]: 18.5 ± 8.5 fold | Trim12 transcript fold increase, HF vs. MAZ1310 [1]: 4.9 ± 0.7 fold | Vegfa transcript fold increase, HF vs. MAZ1310 [1]: 5.8 ± 0.5 fold | Xist transcript fold increase, HF vs. MAZ1310 [1]: 2.1 ± 0.7 fold | time at which eIF2α phosphorylation reached maximum levels ([2]; 10 nM HF): ≤ 2 h | time until which ATF4 protein continued to accumulate ([2]; 10 nM HF): 4 h | eIF2α phosphorylation in resting naïve T cells and T cells in Th17, ThN, Th1, Th2 and iTreg conditions ([2]; 10 nM HF, 4 hours): induced eIF2α phosphorylation | induction of ATF4 expression by T cell state ([2]; 10 nM HF, 4 hours): in all differentiated T cells but not in naïve T cells | HF concentration at which eIF2α phosphorylation plateaued ([2]; 4 hours-post TCR activation): 5 to 10 nM | HF concentration inducing detectable eIF2α phosphorylation ([2]; 4 hours-post TCR activation): 2.5 nM | HF concentration with highest ATF4 expression levels ([2]; 4 hours-post TCR activation): 5 to 10 nM | HF concentration with reduced ATF4 expression ([2]; 4 hours-post TCR activation): 20 to 40 nM | T-cell proliferation at high concentrations [3]: generalized inhibition
